What is called IC50 is the point on the concentration scale where inhibition reaches its midpoint.

Data on 5 compounds can be found in patent US20250195521A1 (Revolution Medicines, Inc., priority 2020, published 2025).

The test system of one test is AsPC-1 (K-Ras G12D). Put plainly: CellTiter-Glo cell viability assay, AsPC-1. It counts as cell-based, human. To be noted: Homo sapiens, ASPC1, 120 h; K-Ras G12D, 5-day treatment; read-out: AsPC-1 Cell Viability IC50. As to the method: Note—The following protocol describes a procedure for monitoring cell viability of K-Ras mutant cancer cell lines in response to a compound of the invention. Other RAS isoforms may be employed, though the number of cells to be seeded will vary based on cell line used.
Test compounds (132.5 nL) were directly dispensed into the assay plates containing cells. […] On day 5, assay plates and their contents were equilibrated to room temperature for approximately 30 minutes. […] Luminescence was measured using the PerkinElmer Enspire. Data were normalized by the following: (Sample signal/Avg. DMSO)*100. The data were fit using a four-parameter logistic fit.

Test [1] concerns NCI-H358 cells (K-Ras G12C). The test is described as follows: CellTiter-Glo cell viability, NCI-H358. To be noted: Homo sapiens, NCI-H358, 120 h, K-Ras G12C, 5-day treatment; read-out: H358 Cell Viability IC50. It counts as cell-based, human. In short, it runs like this:
(§1)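 Cells seeded, compound dispensed straight into wells, 5-day exposure. Plates brought to room temperature ~30 min, CellTiter-Glo luminescence measured. Normalized to DMSO (%), 4-parameter logistic fit.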
In general terms: Cellular ATP, detected with luciferase, serves as a proxy for viable cell number.

Test [2] relates to Capan-1 cells (K-Ras G12V). The test is described as follows: CellTiter-Glo cell viability, Capan-1. The test is classed as cell-based, human. The conditions noted are these: Homo sapiens, CAPAN-1, 120 h, K-Ras G12V, 5-day treatment; read-out: Capan-1 Cell Viability IC50. In short, it runs like this: as §1
The target of another test is KRAS G12C (Homo sapiens (Human), UniProt P01116+P62937, G12C). Put plainly: Ras-Raf disruption/FRET/MOA assay (BRAF RBD, Cyclophilin A). The conditions noted are these: read-out: KRAS G12C FRET IC50. The test is classed as biochemical. The gist of the method: (§2)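 His6-K-Ras-GMPPNP (12.5 nM), GST-BRAF RBD (50 nM) and tagless Cyclophilin A (25 μM) were combined in 25 mM HEPES pH 7.3 with 100 mM NaCl, 5 mM MgCl2, 0.1% BSA and 0.002% Tween20, with compound as a 10-point 3-fold series from 30 μM final, then incubated 3 h at 25° C.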
Sequence of KRAS G12C (P01116-2 other isoform, or with tags, fused parts or gaps G12C): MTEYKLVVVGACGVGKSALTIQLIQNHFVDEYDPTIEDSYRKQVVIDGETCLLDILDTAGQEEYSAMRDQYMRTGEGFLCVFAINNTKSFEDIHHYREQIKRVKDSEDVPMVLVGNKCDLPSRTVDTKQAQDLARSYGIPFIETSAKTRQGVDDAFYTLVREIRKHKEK
Sequence of KRAS G12C (P62937 whole entry): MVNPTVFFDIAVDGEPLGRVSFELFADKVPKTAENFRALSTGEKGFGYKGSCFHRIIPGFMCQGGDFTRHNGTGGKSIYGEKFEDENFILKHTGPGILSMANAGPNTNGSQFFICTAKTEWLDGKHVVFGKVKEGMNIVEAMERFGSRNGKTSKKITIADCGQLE

The target of the next test is KRAS G12D (Homo sapiens (Human), UniProt P01116+P62937, G12D). The description is as above. It counts as biochemical. The conditions noted are these: read-out: KRAS G12D FRET IC50. The gist of the method:
as §2

The target in another test is KRAS G12S (Homo sapiens (Human), UniProt P01116+P62937, G12S). The test is described as above. It counts as biochemical. To be noted: read-out: KRAS G12S FRET IC50. The gist of the method:
as §2

The target in the next test is KRAS G12V (Homo sapiens (Human), UniProt P01116+P62937, G12V). The test is described as above. It counts as biochemical. To be noted: read-out: KRAS G12V FRET IC50. In short, it runs like this: as §2
Sequence of KRAS G12V (P01116 other isoform, or with tags, fused parts or gaps G12V): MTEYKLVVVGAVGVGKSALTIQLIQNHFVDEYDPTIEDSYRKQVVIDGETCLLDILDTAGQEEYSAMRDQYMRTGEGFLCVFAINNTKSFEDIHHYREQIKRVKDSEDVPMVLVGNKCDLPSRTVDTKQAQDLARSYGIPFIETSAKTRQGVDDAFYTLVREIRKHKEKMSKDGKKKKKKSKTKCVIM
Sequence of KRAS G12V (P62937 whole entry): as the sequence (P62937 whole entry) above
The next test addresses KRAS G13C (Homo sapiens (Human), UniProt P01116+P62937, G13C). The test is described as above. It counts as biochemical. The conditions noted are these: read-out: KRAS G13C FRET IC50. In short, it runs like this:
as §2

The next test concerns the target KRAS G13D (Homo sapiens (Human), UniProt P01116+P62937, G13D). The description is as above. It counts as biochemical. To be noted: read-out: KRAS G13D FRET data IC50. The gist of the method:
as §2

Another test deals with KRAS Q61H (Homo sapiens (Human), UniProt P01116+P62937, Q61H). The description is as above. The test is classed as biochemical. The gist of the method:
as §2

A further test has as its target KRAS WT (Homo sapiens (Human), UniProt P01116+P62937). The description is as above. To be noted: read-out: KRAS WT FRET data IC50. The test is classed as biochemical. The gist of the method: as §2
The next test deals with NRAS G12C (Homo sapiens (Human), UniProt P01111+P62937, G12C). The test is described as above. The test is classed as biochemical. The conditions noted are these: read-out: NRAS G12C FRET data IC50. The gist of the method:
(§3)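 25 μM tagless Cyclophilin A, 12.5 nM His6-Ras-GMPPNP and 50 nM GST-BRAF RBD in HEPES pH 7.3 buffer with 5 mM MgCl2, with compound (10-point 3-fold series from 30 μM final) for 3 h at 25 °C. Anti-His Eu and anti-GST APC then added for 1.5 h. IC50 from TR-FRET ratio decrease versus DMSO.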

The target in a further test is NRAS Q61K (Homo sapiens (Human), UniProt P01111+P62937, Q61K). The test is described as above. It counts as biochemical. In short, it runs like this: as §3
Sequence of NRAS Q61K (P01111 whole entry Q61K): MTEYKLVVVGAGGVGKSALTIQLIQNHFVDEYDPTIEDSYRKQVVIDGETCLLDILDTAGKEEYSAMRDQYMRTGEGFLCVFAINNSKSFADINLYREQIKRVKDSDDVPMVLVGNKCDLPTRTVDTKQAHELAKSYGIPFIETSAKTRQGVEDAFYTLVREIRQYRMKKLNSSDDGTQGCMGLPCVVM
Sequence of NRAS Q61K (P62937 whole entry): as the sequence (P62937 whole entry) above
For another test, the target named is NRAS Q61R (Homo sapiens (Human), UniProt P01111+P62937, Q61R). Described as above. It counts as biochemical. In short, it runs like this:
as §3

For a further test, the target named is NRAS WT (Homo sapiens (Human), UniProt P01111+P62937). The description is as above. The test is classed as biochemical. In short, it runs like this: as §3
Sequence of NRAS WT (P01111 whole entry): as the sequence (P01111 whole entry Q61K) above, with K61Q counted along it
Sequence of NRAS WT (P62937 whole entry): as the sequence (P62937 whole entry) above
The subject of another test is NCI-H358 (K-Ras G12C). Put plainly: CellTiter-Glo cell viability assay, NCI-H358. The test is classed as cell-based, human. To be noted: Homo sapiens, NCI-H358, 120 h, 5-day treatment; read-out: H358 Cell Viability assay data (K-Ras G12C, IC50). The gist of the method:
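Cells seeded, compound added directly to plates; day 5: plates to RT ~30 min, CellTiter-Glo luminescence; (sample/avg DMSO)*100; 4-parameter fit.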

For test [3], the target named is K-Ras G12C(GMP-PNP) binding to BRAF RBD (Homo sapiens (Human), UniProt P01116+P62937, G12C). The test is described as follows: Disruption of BRAF RBD interaction with K-Ras (FRET / MOA assay), K-Ras G12C. It counts as biochemical. The conditions noted are these: read-out: KRAS G12C FRET IC50. In short, it runs like this:
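Compounds promote ternary complex of nucleotide-loaded Ras (here K-Ras G12C·GMP-PNP; other Ras mutants substituted) with cyclophilin A, disrupting BRAF RBD binding. 10-point 3-fold series from 30 μM final, 3 h at 25 °C, then anti-His Eu (10 nM) and anti-GST APC (50 nM) for 1.5 h. TR-FRET ratio decrease versus DMSO gave IC50.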

Each structure is given as a SMILES string. A value given as a limit tells only on which side of the number the result lay.

Sequence of NRAS Q61R (P01111 whole entry Q61R): as the sequence (P01111 whole entry Q61K) above, with K61R counted along it
Sequence of NRAS Q61R (P62937 whole entry): as the sequence (P62937 whole entry) above
Sequence of KRAS G12D (P01116 other isoform, or with tags, fused parts or gaps G12D): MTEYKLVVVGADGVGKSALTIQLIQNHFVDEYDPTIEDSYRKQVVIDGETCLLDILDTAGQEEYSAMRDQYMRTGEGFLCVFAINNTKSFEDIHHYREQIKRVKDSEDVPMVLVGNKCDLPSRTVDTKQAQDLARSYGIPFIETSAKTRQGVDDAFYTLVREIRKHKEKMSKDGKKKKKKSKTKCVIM
Sequence of KRAS G12D (P62937 whole entry): as the sequence (P62937 whole entry) above
Sequence of KRAS G12S (P01116 other isoform, or with tags, fused parts or gaps G12S): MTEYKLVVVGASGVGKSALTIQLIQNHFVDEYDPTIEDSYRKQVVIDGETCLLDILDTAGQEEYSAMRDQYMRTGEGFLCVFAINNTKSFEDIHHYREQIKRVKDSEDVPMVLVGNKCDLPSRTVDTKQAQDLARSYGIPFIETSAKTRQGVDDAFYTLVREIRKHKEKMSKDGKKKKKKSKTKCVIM
Sequence of KRAS G12S (P62937 whole entry): as the sequence (P62937 whole entry) above
Sequence of K-Ras G12C(GMP-PNP) binding to BRAF RBD (P01116 other isoform, or with tags, fused parts or gaps G12C): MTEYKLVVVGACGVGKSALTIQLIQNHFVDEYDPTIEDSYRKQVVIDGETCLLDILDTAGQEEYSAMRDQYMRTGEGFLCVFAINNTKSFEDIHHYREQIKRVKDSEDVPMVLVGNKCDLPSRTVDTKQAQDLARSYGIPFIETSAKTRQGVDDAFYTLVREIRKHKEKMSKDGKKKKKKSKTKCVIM
Sequence of K-Ras G12C(GMP-PNP) binding to BRAF RBD (P62937 whole entry): as the sequence (P62937 whole entry) above
Sequence of KRAS G13C (P01116 other isoform, or with tags, fused parts or gaps G13C): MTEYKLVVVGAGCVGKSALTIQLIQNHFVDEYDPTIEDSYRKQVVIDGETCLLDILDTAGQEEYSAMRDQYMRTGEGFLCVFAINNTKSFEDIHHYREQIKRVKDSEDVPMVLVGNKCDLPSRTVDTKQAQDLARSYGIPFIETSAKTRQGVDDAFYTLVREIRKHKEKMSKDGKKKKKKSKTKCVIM
Sequence of KRAS G13C (P62937 whole entry): as the sequence (P62937 whole entry) above
Sequence of KRAS Q61H (P01116 other isoform, or with tags, fused parts or gaps Q61H): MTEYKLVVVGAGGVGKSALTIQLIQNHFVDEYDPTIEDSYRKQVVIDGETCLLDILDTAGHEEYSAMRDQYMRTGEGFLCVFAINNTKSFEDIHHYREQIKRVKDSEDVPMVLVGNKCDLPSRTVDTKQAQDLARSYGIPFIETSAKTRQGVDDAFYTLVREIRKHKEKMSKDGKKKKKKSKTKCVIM
Sequence of KRAS Q61H (P62937 whole entry): as the sequence (P62937 whole entry) above
Sequence of KRAS WT (P01116 other isoform, or with tags, fused parts or gaps): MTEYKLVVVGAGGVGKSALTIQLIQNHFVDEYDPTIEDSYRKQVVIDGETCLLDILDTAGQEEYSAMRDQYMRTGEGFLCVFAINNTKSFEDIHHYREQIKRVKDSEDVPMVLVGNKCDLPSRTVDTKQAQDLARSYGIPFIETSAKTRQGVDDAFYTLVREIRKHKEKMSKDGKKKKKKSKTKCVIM
Sequence of KRAS WT (P62937 whole entry): as the sequence (P62937 whole entry) above
Sequence of NRAS G12C (P01111 whole entry G12C): as the sequence (P01111 whole entry Q61K) above, with G12C, K61Q counted along it
Sequence of NRAS G12C (P62937 whole entry): as the sequence (P62937 whole entry) above
Sequence of KRAS G13D (P01116 other isoform, or with tags, fused parts or gaps G13D): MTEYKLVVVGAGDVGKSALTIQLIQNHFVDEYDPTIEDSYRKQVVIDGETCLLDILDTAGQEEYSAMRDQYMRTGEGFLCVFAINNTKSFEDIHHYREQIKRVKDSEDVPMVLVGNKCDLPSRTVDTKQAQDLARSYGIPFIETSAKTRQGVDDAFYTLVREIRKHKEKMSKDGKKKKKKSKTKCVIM
Sequence of KRAS G13D (P62937 whole entry): as the sequence (P62937 whole entry) above

Take `CCn1c(-c2cccnc2[C@H](C)OC)c2c3cc(ccc31)-c1cc(O)cc(c1)C[C@H](NC(=O)[C@H](C(C)C)N(C)C(=O)N1CCN(C(=O)[C@H]3CN3)C(=O)C1)C(=O)N1CCC[C@H](N1)C(=O)OCC(C)(C)C2` [Example 143]: in the test on AsPC-1 (K-Ras G12D), the IC50 is above 10000 nM.

On to `CCn1c(-c2cccnc2[C@H](C)OC)c2c3cc(ccc31)-c1csc(n1)C[C@H](NC(=O)[C@H](C(C)C)N(C)C(=O)N1C[C@H]3CCN(C)[C@H]3C1)C(=O)N1CCC[C@H](N1)C(=O)OCC(C)(C)C2` [Compound A568], for which the IC50 in test [1] is 10 to 100 nM; in test [2] it was 100 to 1000 nM; on KRAS G12C, 100 to 1000 nM; at KRAS G12D it was 100 to 1000 nM; at KRAS G12S, 100 to 1000 nM; on KRAS G12V, 100 to 1000 nM. Moreover, the IC50 at KRAS G13C, at KRAS G13D, on KRAS Q61H, at KRAS WT, at NRAS G12C and against NRAS Q61K was 100 to 1000 nM throughout. The IC50 against NRAS Q61R was 100 to 1000 nM; on NRAS WT, 100 to 1000 nM; in the test with NCI-H358 (K-Ras G12C), 10 to 100 nM; in test [3], 10 to 100 nM.

Regarding `CCn1c(-c2cccnc2[C@H](C)OC)c2c3cc(ccc31)-c1csc(n1)C[C@H](NC(=O)[C@H](C(C)C)N(C)C(=O)N1CC[C@H]1CN(C)C)C(=O)N1CCC[C@H](N1)C(=O)OCC(C)(C)C2` [Compound A508], the IC50 in [1] was 100 to 1000 nM; in test [2], 100 to 1000 nM; on KRAS G12C it was 100 to 1000 nM; on KRAS G12D, 1000 to 10000 nM; at KRAS G12S it was 100 to 1000 nM; on KRAS G12V, 1000 to 10000 nM. The IC50 on KRAS G13C is 100 to 1000 nM; at KRAS G13D, 1000 to 10000 nM; against KRAS Q61H, 100 to 1000 nM; on KRAS WT it was 100 to 1000 nM; at NRAS G12C it was 100 to 1000 nM; at NRAS Q61K it was 1000 to 10000 nM. Also, the IC50 was in the range of 1000 to 10000 nM on NRAS Q61R, 100 to 1000 nM against NRAS WT, 100 to 1000 nM with NCI-H358 (K-Ras G12C) and 100 to 1000 nM in test [3].

`CCn1c(-c2cccnc2[C@H](C)OC)c2c3cc(ccc31)-c1cc(O)cc(c1)C[C@H](NC(=O)[C@H](C(C)C)N(C)C(=O)N1CCN(C(=O)[C@@H]3CN3)C(=O)C1)C(=O)N1CCC[C@H](N1)C(=O)OCC(C)(C)C2` (atropisomer, axis not shown) [Example 194]: in the test on AsPC-1 (K-Ras G12D), the IC50 was above 10000 nM.

For the compound `CCn1c(-c2cccnc2[C@H](C)OC)c2c3cc(ccc31)-c1csc(n1)C[C@H](NC(=O)[C@H](C(C)C)N(C)C(=O)N(C)[C@H]1CCN(C)C1)C(=O)N1CCC[C@H](N1)C(=O)OCC(C)(C)C2` [Compound A563], the IC50 in [1] is 10 to 100 nM; in [2] it was 10 to 100 nM; at KRAS G12C it was 100 to 1000 nM; at KRAS G12D, 100 to 1000 nM; on KRAS G12S, 100 to 1000 nM; on KRAS G12V it was 1000 to 10000 nM. The IC50 on KRAS G13C is 100 to 1000 nM; at KRAS G13D, 100 to 1000 nM; on KRAS Q61H it was 10 to 100 nM; at KRAS WT it was 100 to 1000 nM; at NRAS G12C, 100 to 1000 nM; on NRAS Q61K, 100 to 1000 nM. For the same compound, the IC50 (against NRAS Q61R; on NRAS WT; in the test on NCI-H358 (K-Ras G12C); in test [3]) was 100 to 1000 nM throughout.
